# In patent US20050191283A1, “Methods of treating NFAT-related disorders” (priority 2003, published 2005):
# “Also recorded” adds a separate entry of the source.
# Assays:
# [1] = system: NFATc2 expression in UCB T lymphocytes; test: NFATc2 protein expression by intracellular flow cytometry in gated CD3+ cells of UCB MNC; type: cell-based, human; conditions: for NFATc2 expression (dual staining for NFATc2 and IFN-γ): ConA alone or ConA + 100 U/ml IFN-γ
# Protocol: (§1) Human umbilical cord blood from full-term deliveries by vaginal or caesarean sections and adult peripheral blood from healthy donors was collected according to guidelines by the Institutional Review Board at University Hospitals of Cleveland. Mononuclear cells (MNC) were isolated by gradient centrifugation, as previously described (6) and used immediately fresh.
# (§2) Total MNC were stimulated in bulk culture as previously described (6). Briefly, 2×10^6 cells/ml were stimulated with 2 μg/ml of concanavalin A (ConA) (Sigma Chemical Co, St Louis, Mo.) in complete RPMI medium (Gibco BRL, Gaithersburg, Md.), containing 10% fetal bovine serum (Gibco BRL), 1 mM Sodium-pyruvate, 0.1 mM nonessential amino acids, 10 mM HEPES and 58 μM 2-mercaptoethanol (Sigma Chemical Co), in presence or absence of the manufacturer's recommended concentration of 1 μg/ml of cyclosporin A (CsA) (Sigma Chemical Co), as previously described (7). Where specified, IFN-γ (Roche, Indianapolis, Ind.) was added at indicated concentrations, or neutralizing anti-IFN-γ antibody (R&D Systems, Minneapolis, Minn.) was added at a concentration of 0.25-2 μg/ml. Purified T cells were stimulated as described (26), with plate-bound anti-CD3 (1 μg/ml) and soluble anti-CD28 (5 μg/ml) monoclonal antibodies. Elispot assays were performed as previously described (27). Briefly, ImmunoSpot plates M200 (Cellular Technology Limited, Cleveland Ohio) were coated with capture antibody for IFN-γ M700A-E (2 μg/ml; Endogen, Woburn, Mass.), washed and MNC were plated in complete RPMI medium with 5% ABO serum (Gemini Bioproducts, Calmasas, Calif.)+1% L-glutamine, at 3×10^5 per well. Cells were stimulated with irradiated 3×10^5 T-cell-depleted MNC from a healthy adult or cord blood. T cells were depleted with RosetteSep (StemCell Technologies, Vancouver, Canada), according to manufacturer's directions. After 24 h of stimulation, plates were washed and incubated over night with secondary biotinylated detection antibodies against IFN-γ M701 (0.5 μg/ml; Endogen, Woburn, Mass.). Streptavidin-HRP conjugate (Dako Corp., Carpenteria Calif.) was added and the spots were visualized using the HRP-substrate AEC (Pierce Pharmaceuticals, Rockford Ill.), and subjected to image analysis on a Series 1 ImmunoSpot Image Analyzer (Cellular Technology, Cleveland, Ohio) specifically designed for automated evaluation of ELISPOTs.
# Intracellular IFN-γ staining was performed as described previously (6, 7). Briefly, MNC were stimulated for the indicated time points, for the last 6-8 h in the presence of 5 μg/ml of Brefeldin A (Sigma Chemical Co), and permeabilized. […] 20,000-80,000 events were acquired on a calibrated Elite ESP flow cytometer (Coulter, Miami, Fla.) and data were analyzed with WinList software (Verity Software House Inc, Topsham, Minn.). […]
# [2] = system: IFN-γ expression in UCB T lymphocytes; test: Intracellular IFN-γ staining in gated CD3+ cells of UCB MNC; type: cell-based, human; conditions: for average percentage of T cells producing IFN-γ: whole UCB MNC
# Protocol: as §1, §2
# MNC from UCB were depleted of monocytes by using monoclonal antibody against CD11b (Pharmingen), followed by anti-IgG magnetic bead (Dynal) depletion as above, or by using anti-CD14 microbeads (Miltenyi Biotech Inc., Auburn, Calif.) and AutoMACS (Miltenyi Biotech Inc.), according to manufacturer's protocol.
# Intracellular IFN-γ staining was performed as described previously (6, 7). […] 1×10^6 cells were stained for 30 minutes with the following antibodies: anti-IFN-γ-FITC or -PE (R&D Systems), anti-CD3-APC (Pharmingen), and anti-CD69-PE (Pharmingen) or -PerCP (Becton Dickinson, San Jose, Calif.) and the corresponding isotype controls (Pharmingen, Becton Dickinson). 20,000-80,000 events were acquired on a calibrated Elite ESP flow cytometer (Coulter, Miami, Fla.) and data were analyzed with WinList software (Verity Software House Inc, Topsham, Minn.). For intracellular staining of NFATc2, the same monoclonal antibody clone as used in immunoblotting was custom FITC-conjugated (Transduction Laboratories) and used at a titrated concentration of 1 μg/10^6 cells.
# [3] = system: NFATc2 expression in adult T lymphocytes; test: NFATc2 protein expression by intracellular flow cytometry in gated CD3+ cells of stimulated adult MNC; type: cell-based, human; conditions: adult MNC stimulated 24 h, exogenous IFN-γ 100 U/ml
# Protocol: as §1
# (§3) Total MNC were stimulated in bulk culture as previously described (6). Briefly, 2×10^6 cells/ml were stimulated with 2 μg/ml of concanavalin A (ConA) (Sigma Chemical Co, St Louis, Mo.) in complete RPMI medium (Gibco BRL, Gaithersburg, Md.), containing 10% fetal bovine serum (Gibco BRL), 1 mM Sodium-pyruvate, 0.1 mM nonessential amino acids, 10 mM HEPES and 58 μM 2-mercaptoethanol (Sigma Chemical Co), in presence or absence of the manufacturer's recommended concentration of 1 μg/ml of cyclosporin A (CsA) (Sigma Chemical Co), as previously described (7). Where specified, IFN-γ (Roche, Indianapolis, Ind.) was added at indicated concentrations, or neutralizing anti-IFN-γ antibody (R&D Systems, Minneapolis, Minn.) was added at a concentration of 0.25-2 μg/ml. […]
# (§4) Intracellular IFN-γ staining was performed as described previously (6, 7). […] 20,000-80,000 events were acquired on a calibrated Elite ESP flow cytometer (Coulter, Miami, Fla.) and data were analyzed with WinList software (Verity Software House Inc, Topsham, Minn.). […]
# [4] = system: IFN-γ expression in purified UCB T cells; test: Intracellular IFN-γ staining in purified UCB T cells; type: cell-based, human
# Protocol: as §1, §3, §4
# [5] = system: IFN-γ expression in purified adult T cells; test: Intracellular IFN-γ staining in purified adult T cells; type: cell-based, human; conditions: anti-CD3/CD28 24 h, exogenous IFN-γ 100 U/ml
# Protocol: as §1, §3, §4
# [6] = system: IFN-γ expression by UCB MNC; conditions: exogenous IL-12 added to the stimulation conditions; cited from earlier work
# [7] = experiment 1, whole UCB MNC, 24 h
# [8] = experiment 2, whole UCB MNC, 24 h
# [9] = experiment 3, whole UCB MNC, 24 h
# [10] = experiment 4, whole UCB MNC, 24 h
molecule,measurement,setting,value
"concanavalin A [ConA, reference compound]",NFATc2 expression (dual staining for NFATc2 and IFN-γ),[1],increase in NFATc2 upregulation
same,IFN-γ expression,"[2]; UCB MNC, ConA alone",only a slight increase in IFN-γ expression
same,percentages of CD3+ cells positive for IFN-γ staining,[2]; [7],0.96%
same,percentages of CD3+ cells positive for IFN-γ staining,[2]; [8],0.78%
same,percentages of CD3+ cells positive for IFN-γ staining,[2]; [9],0.96%
same,percentages of CD3+ cells positive for IFN-γ staining,[2]; [10],1.05%
same,average percentage of T cells producing IFN-γ,[2]; n=4,0.9%
TNF-A,upregulation of IFN-γ expression,"[2]; UCB MNC, ConA 24 h, TNF-A (1 ng/ml) or IL-2 added in place of IFN-γ",did not result in upregulation of IFN-γ expression
"C[C@H]1CCC/C=C/[C@@H]2C[C@H](O)C[C@H]2[C@H](O)/C=C/C(=O)O1 [Brefeldin A, reference compound]",upregulation of IFN-γ in UCB T cells,"[2]; UCB MNC, ConA ± IFN-γ 100 U/ml, BFA added immediately and for the whole stimulation (BFA 24 h)",no upregulation of IFN-γ could be observed
"IFN-γ: IFN-γ (Roche, Indianapolis, Ind.) added exogenously during stimulation",NFATc2 expression,[3],further upregulation of NFATc2
same,NFATc2 protein expression,"[1]; ConA 16 h, added IFN-γ 10-1,000 U/ml, gated CD3+ cells",increased in a dose dependent manner
same,NFATc2 expression (dual staining for NFATc2 and IFN-γ),[1],strong increases of NFATc2 expression
same,NFATc2 levels,"[1]; absence of stimulation, IFN-γ alone 100 U/ml",intermediate between unstimulated and stimulated T lymphocytes; also recorded: only slightly increased NFATc2 expression
same,IFN-γ-mediated rescue effect,[2]; UCB MNC depleted of B cells and NK cells,did not result in a significant loss of the IFN-γ-mediated rescue effect
same,average percentage of IFN-γ producing T cells,"[2]; UCB MNC depleted of monocytes prior to stimulation, ConA + IFN-γ, n=4",1.0%
same,percentages of IFN-γ-expressing T lymphocytes,"[2]; UCB MNC, ConA 24 h, exogenous IFN-γ 100 U/ml",rose close to that measured in adult T lymphocytes
same,lowest dose of exogenous IFN-γ with effective IFN-γ rescue,"[2]; UCB MNC, ConA stimulation, dose titrated down",50 U/ml
same,IFN-γ expression,"[2]; UCB MNC, no stimulation, IFN-γ alone 100 U/ml",did not stimulate IFN-γ expression
same,percentages of CD3+ cells positive for IFN-γ staining,"[2]; experiment 1, UCB MNC depleted of CD11b, 24 h",0.89%
same,percentages of CD3+ cells positive for IFN-γ staining,[2]; [7],1.38%
same,percentages of CD3+ cells positive for IFN-γ staining,"[2]; experiment 2, UCB MNC depleted of CD11b, 24 h",0.92%
same,percentages of CD3+ cells positive for IFN-γ staining,[2]; [8],1.41%
same,percentages of CD3+ cells positive for IFN-γ staining,"[2]; experiment 3, UCB MNC depleted of CD11b, 24 h",1.30%
same,percentages of CD3+ cells positive for IFN-γ staining,[2]; [9],1.74%
same,percentages of CD3+ cells positive for IFN-γ staining,"[2]; experiment 4, UCB MNC depleted of CD14, 24 h",1.07%
same,percentages of CD3+ cells positive for IFN-γ staining,[2]; [10],1.83%
same,average percentage of T cells producing IFN-γ,[2]; n=4,1.6%
same,IFN-γ rescue effect,"[4]; ConA, IFN-γ added",no IFN-γ rescue effect was observed
same,IFN-γ expression,"[4]; anti-CD3/CD28 24 h, exogenous IFN-γ 100 U/ml",could not be rescued
same,IFN-γ expression,[5],no increase in IFN-γ expression was observed
"IL-12: exogenous cytokine, literature result (ref 44) (protein, UniProt P29459 23-219; P29460 23-328, looked up) Interleukin-12 subunit alpha: RNLPVATPDPGMFPCLHHSQNLLRAVSNMLQKARQTLEFYPCTSEEIDHEDITKDKTSTVEACLPLELTKNESCLNSRETSFITNGSCLASRKTSFMMALCLSSIYEDLKMYQVEFKTMNAKLLMDPKRQIFLDQNMLAVIDELMQALNFNSETVPQKSSLEEPDFYKTKIKLCILLHAFRIRAVTIDRVMSYLNAS Interleukin-12 subunit beta: IWELKKDVYVVELDWYPDAPGEMVVLTCDTPEEDGITWTLDQSSEVLGSGKTLTIQVKEFGDAGQYTCHKGGEVLSHSLLLLHKKEDGIWSTDILKDQKEPKNKTFLRCEAKNYSGRFTCWWLTTISTDLTFSVKSSRGSSDPQGVTCGAATLSAERVRGDNKEYEYSVECQEDSACPAAEESLPIEVMVDAVHKLKYENYTSSFFIRDIIKPDPPKNLQLKPLKNSRQVEVSWEYPDTWSTPHSYFSLTFCVQVQGKSKREKKDRVFTDKTSATVICRKNASISVRAQDRYYSSSWSEWASVPCS",IFN-γ expression by UCB MNC,[6],could be increased
